Test results from US6875761B2 (Eisai Co., Ltd., priority 1997, dated 2005).
Counter-ions that a name gives are not always drawn.

How the values were obtained:
[1] = target: T1, serotonin 1A receptor (Rattus norvegicus, UniProt P19327); assay: Binding test on [3H] 8-hydroxy-dipropylaminotetralin, hippocampus receptor fraction; set-up: species or system SD rats; details: rat hippocampus receptor fraction, 0.5 nM [3H] 8-OH-DPAT, room temperature 30 min; read-out: 5HT1
T1 construct: To the receptor fraction of the hippocampus were added a test compound and 0.5 nM of [^3H]; 8-hydroxy-dipropylaminotetralin; from tissue; host or cells: rat hippocampus membrane fraction
T1 sequence (P19327 1-422): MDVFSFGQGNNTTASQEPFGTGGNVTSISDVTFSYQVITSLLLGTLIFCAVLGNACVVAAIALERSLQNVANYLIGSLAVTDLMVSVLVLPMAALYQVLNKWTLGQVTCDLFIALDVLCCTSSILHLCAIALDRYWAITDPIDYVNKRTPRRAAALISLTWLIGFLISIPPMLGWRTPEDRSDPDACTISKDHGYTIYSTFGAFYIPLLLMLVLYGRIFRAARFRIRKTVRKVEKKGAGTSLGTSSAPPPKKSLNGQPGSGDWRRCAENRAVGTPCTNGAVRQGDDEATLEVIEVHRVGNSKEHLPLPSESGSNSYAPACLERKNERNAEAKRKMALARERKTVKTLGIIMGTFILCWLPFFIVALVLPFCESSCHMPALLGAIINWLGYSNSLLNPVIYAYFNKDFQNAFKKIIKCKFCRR

[2] = target: T2, serotonin 2 receptor (Rattus norvegicus, UniProt P14842); assay: Binding test on [3H] ketanserin, cerebral cortex receptor fraction; set-up: species or system SD rats; details: 0.3 nM [3H] ketanserin, 37° C. 15 min, read-out: 5HT2
T2 construct: To the receptor fraction of the cerebral cortex were added a test compound and 0.3 nM of [^3H] ketanserin; from tissue; host or cells: rat cerebral cortex membrane fraction
T2 sequence (P14842 whole entry): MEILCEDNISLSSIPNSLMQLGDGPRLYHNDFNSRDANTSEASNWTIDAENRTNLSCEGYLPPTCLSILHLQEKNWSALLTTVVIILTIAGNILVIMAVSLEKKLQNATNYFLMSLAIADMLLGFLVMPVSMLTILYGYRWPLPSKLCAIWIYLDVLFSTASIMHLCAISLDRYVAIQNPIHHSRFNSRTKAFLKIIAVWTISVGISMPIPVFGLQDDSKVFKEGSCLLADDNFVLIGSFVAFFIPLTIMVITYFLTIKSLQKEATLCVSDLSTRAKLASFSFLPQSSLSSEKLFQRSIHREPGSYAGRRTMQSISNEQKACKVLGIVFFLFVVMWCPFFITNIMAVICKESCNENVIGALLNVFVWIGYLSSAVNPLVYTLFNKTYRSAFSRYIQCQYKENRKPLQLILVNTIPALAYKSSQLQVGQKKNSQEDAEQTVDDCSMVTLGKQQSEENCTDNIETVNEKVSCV

| Compound | Ki [1] [µM] | Ki [2] [µM] |
| --- | --- | --- |
| CCN1CCN(c2nc(-c3ccc(OCCCO)cc3)cc3ccsc23)CC1 [Example 434, 7-(4-ethylpiperazin-1-yl)-5-[4-(3-hydroxypropoxy)phenyl]thieno[2,3-c]pyridine dihydrochloride] | 0.0649 | 0.0605 |
| CCN1CCN(c2nc(-c3ccc(OC[C@@H](C)O)cc3)cc3ccsc23)CC1 [Example 435, 7-(4-ethylpiperazin-1-yl)-5-[4-(2-hydroxypropoxy)phenyl]thieno[2,3-c]pyridine dihydrochloride] | 0.0612 | 0.00114 |
| CCN1CCN(c2nc(-c3ccc(CC(C)O)cc3)cc3ccsc23)CC1 (stereo not shown) [Example 436, 7-(4-ethylpiperazin-1-yl)-5-[4-(2-hydroxypropyl)phenyl]thieno[2,3-c]pyridine dihydrochloride] | 0.00864 | 0.026 |
| CCN1CCN(c2nc(-c3ccc(OCCO)c(Cl)c3)cc3ccsc23)CC1 [Example 437, 7-(4-ethylpiperazin-1-yl)-5-[3-chloro-4-(2-hydroxyethoxy)phenyl]thieno[2,3-c]pyridine] | 0.0305 | 0.0181 |
| CCN1CCN(c2nc(-c3ccc(O[C@@H](C)CO)cc3)cc3ccsc23)CC1 [Example 438, 7-(4-ethylpiperazin-1-yl)-5-[4-(1-methyl-2-hydroxyethoxy)phenyl]thieno[2,3-c]pyridine dihydrochloride] | 0.0629 | 0.0188 |
| CCN1CCN(c2nc(-c3ccc(CCC(C)(C)O)cc3)cc3ccsc23)CC1 [Example 439, 7-(4-ethylpiperazin-1-yl)-5-[4-(3-hydroxy-3-methylbutyl)phenyl]thieno[2,3-c]pyridine dihydrochloride] | 0.0442 | 0.00603 |
| CCN1CCN(c2nc(-c3ccc(CCC(C)O)cc3)cc3ccsc23)CC1 (stereo not shown) [Example 440, 7-(4-ethylpiperazin-1-yl)-5-[4-(3-hydroxybutyl)phenyl]thieno[2,3-c]pyridine dihydrochloride] | 0.0218 | 0.00072 |
| CCN1CCN(c2nc(-c3ccc(CC(C)CO)cc3)cc3ccsc23)CC1 (stereo not shown) [Example 441, 7-(4-ethylpiperazin-1-yl)-5-[4-(3-hydroxy-2-methylpropyl)phenyl]thieno[2,3-c]pyridine dihydrochloride] | 0.0152 | 0.00041 |
| CCN1CCN(c2nc(-c3ccc(CC(C)(C)CO)cc3)cc3ccsc23)CC1 [Example 442, 7-(4-ethylpiperazin-1-yl)-5-[4-(3-hydroxy-2,2-dimethylpropyl)phenyl]thieno[2,3-c]pyridine dihydrochloride] | 0.0232 | 0.00266 |
| CCN1CCN(c2nc(-c3ccc(C(C)(C)CCO)cc3)cc3ccsc23)CC1 [Example 443, 7-(4-ethylpiperazin-1-yl)-5-[4-(3-hydroxy-1,1-dimethylpropyl)phenyl]thieno[2,3-c]pyridine dihydrochloride] | 0.0102 | 0.00185 |
| CCN1CCN(c2nc(-c3ccc(SC[C@@H](C)O)cc3)cc3ccsc23)CC1 [Example 444, 7-(4-ethylpiperazin-1-yl)-5-[4-(2-hydroxypropylthio)phenyl]thieno[2,3-c]pyridine dihydrochloride] | 0.0432 | 0.012 |
| CCN1CCN(c2nc(-c3ccc(S(C)(=O)=O)cc3)cc3ccsc23)CC1 [Example 445, 7-(4-ethylpiperazin-1-yl)-5-(4-methanesulfonylphenyl)thieno)[2,3-c]pyridine dihydrochloride] | 0.00546 | 0.0904 |
| CCCC(O)c1ccc(-c2cc3ccsc3c(N3CCN(CC)CC3)n2)cc1 (stereo not shown) [Example 446, 7-(4-ethylpiperazin-1-yl)-5-[4-(1-hydroxybutyl)phenyl]thieno[2,3-c]pyridine dihydrochloride] | 0.0122 | 0.03 |
| CCNC(=O)c1ccc(-c2cc3ccsc3c(N3CCN(CC)CC3)n2)cc1 [Example 448, 7-(4-ethylpiperazin-1-yl)-5-[4-(N-ethylcarbamoyl)phenyl]thieno[2,3-c]pyridine dihydrochloride] | 0.0226 | 0.346 |
